Experimental data from PubChem BioAssay (NCI).
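Cultured in 96-well plates, cells were exposed to test compound for 48 hours across five concentrations. TGI: concentration producing complete growth inhibition.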

Legend:
Test in all cases: NCI tumour cell line growth inhibition, 48 h
[1] = test system: A549 NSCLC
[2] = test system: CAKI-1 renal
[3] = test system: CCRF-CEM leukemia
[4] = test system: EKVX NSCLC
[5] = test system: HCT-116 colon
[6] = test system: HOP-62 NSCLC
[7] = test system: KM12 colon
[8] = test system: LOX IMVI melanoma
[9] = test system: NCI-H23 lung
[10] = test system: NCI-H460 lung
[11] = test system: RPMI-8226 leukemia
[12] = test system: RXF 393 renal
[13] = test system: SK-MEL-2 melanoma
[14] = test system: SN12C renal
[15] = test system: SNB-75 CNS
[16] = test system: UO-31 renal
[17] = test system: BT-549 breast
[18] = test system: OVCAR-4 ovarian
[19] = test system: SF-295 CNS
[20] = test system: MDA-MB-435

Compound | TGI [1] [µM] | TGI [2] [µM] | TGI [3] [µM] | TGI [4] [µM] | TGI [5] [µM] | TGI [6] [µM] | TGI [7] [µM] | TGI [8] [µM] | TGI [9] [µM] | TGI [10] [µM] | TGI [11] [µM] | TGI [12] [µM] | TGI [13] [µM] | TGI [14] [µM] | TGI [15] [µM] | TGI [16] [µM] | TGI [17] [µM] | TGI [18] [µM] | TGI [19] [µM] | TGI [20] [µM]
Cc1ccc(/C(O)=C/c2nc3c(nc2NC24CC5CC(CC(C5)C2)C4)c(=O)oc2ccccc23)cc1 | > 100 | > 100 | > 100 | > 100 | > 100 | > 100 | > 100 | > 100 | > 100 | > 100 | > 100 | > 100 | > 100 | > 100 | 70.1 | > 100 | – | – | – | –
COc1ccc(P2(=S)Oc3ccccc3-c3ccccc3O2)cc1 | > 54.9 | – | > 100 | > 100 | > 38.7 | > 100 | > 100 | > 100 | > 100 | > 100 | – | – | > 100 | – | > 100 | – | > 100 | > 100 | > 100 | –
CC(C)(Oc1ccccc1)C(=O)Sc1c(-c2ccccc2)c(=O)n(-c2ccccc2)c(=S)n1-c1ccccc1 | > 100 | > 100 | > 100 | > 100 | > 100 | 52.8 | 64.7 | > 100 | > 100 | 67.3 | – | 63.2 | – | > 100 | > 100 | 82.8 | – | > 100 | > 100 | 52.4
COc1cc2nc(-c3cccs3)nc(N3CCN(c4ccccc4C(F)(F)F)CC3)c2cc1OC | > 100 | > 100 | > 100 | > 100 | > 100 | > 100 | > 100 | > 100 | > 100 | > 100 | > 100 | – | > 100 | > 100 | > 100 | > 100 | > 100 | > 100 | > 100 | > 100
Oc1c(Cl)c(Cl)c(O)c(CCNc2ccc3ncccc3c2)c1Cl | 47.3 | 25.4 | – | 36 | 41.9 | 27.7 | 15.9 | – | 25.9 | 41.8 | – | 37.7 | 22.8 | 28.9 | 33.4 | 31.2 | – | > 100 | 24.1 | 18.8
C=CC1CCC[N+]1(CC(=O)OCC)Cc1ccccc1 (stereo not drawn) | > 100 | – | > 100 | > 100 | > 100 | > 100 | – | – | > 100 | > 100 | > 100 | – | – | > 100 | > 100 | > 100 | > 100 | > 100 | > 100 | > 100
c1ccc(N=C(Nc2ccccc2)N2CCCC2)cc1 | > 100 | > 100 | > 100 | > 100 | > 100 | > 100 | > 100 | > 100 | > 100 | > 100 | > 100 | – | > 100 | > 100 | > 100 | > 100 | > 100 | > 100 | > 100 | > 100
C=CCN1C(=O)/C(=C\c2cc(C(C)(C)C)c(O)c(C(C)(C)C)c2)NC1=S | > 100 | 83.3 | 20.4 | 65.1 | 35.4 | 51.5 | 72.6 | 31.6 | 94 | 36.8 | > 100 | – | 31.8 | > 100 | – | > 100 | > 100 | > 100 | 68.3 | 70.8
O=C1c2ccccc2C(=O)N1CC1S(=O)(=O)OCCOS1(=O)=O | > 100 | > 100 | > 100 | > 100 | > 100 | > 100 | – | > 100 | > 100 | > 100 | > 100 | > 100 | – | > 100 | > 100 | > 100 | – | > 100 | > 100 | > 100
O=P1(Oc2ccc(Cl)cc2Cl)Oc2ccc3ccccc3c2-c2c(ccc3ccccc23)O1 | > 100 | 43.3 | > 89.6 | > 67.3 | > 75.1 | 40 | > 90.4 | 53.9 | 75.8 | > 90.6 | 48 | 34.7 | 36 | > 100 | 85 | 41.3 | – | 94.2 | > 94.7 | –
O=S(CC1(O)CCCCC1)c1ccccc1 (stereo not drawn) | > 100 | > 100 | > 100 | > 100 | > 100 | > 100 | > 100 | > 100 | > 100 | > 100 | 2.32 | > 100 | > 100 | > 100 | > 100 | > 100 | > 100 | > 100 | > 100 | –
O=C1/C(=C/c2ccc(OC(=O)c3ccccc3)cc2)CCC/C1=C\c1ccc(OC(=O)c2ccccc2)cc1 | > 100 | > 100 | > 100 | > 100 | > 100 | > 100 | > 100 | > 100 | > 100 | > 100 | > 100 | – | > 100 | > 100 | > 100 | > 100 | > 100 | > 100 | > 100 | > 100
CC1C/C(=C\c2ccc(OC(=O)C(C)(C)C)cc2)C(=O)/C(=C/c2ccc(OC(=O)C(C)(C)C)cc2)C1 (stereo not drawn) | > 100 | > 100 | 6.25 | > 100 | > 100 | > 100 | > 100 | > 100 | > 100 | > 100 | – | 70.9 | > 100 | > 100 | – | – | – | > 100 | > 100 | > 100
